This series has as its system VCaP cells. Put plainly: Cytotoxicity assessment (Cell-titer-glo cell viability), VCaP. Particulars: read-out: VCaP (CC50); VCaP cells, 6 days of treatment, Cell-titer-glo, vs DMSO.

Each structure is given as a SMILES string.

As for `CC1(C)C(NC(=O)c2ccc(C#CCC3CCN(C4CCN(c5ccc6nnn(C7CCC(=O)NC7=O)c(=O)c6c5)CC4)CC3)cc2)C(C)(C)C1Oc1ccc(C#N)c(Cl)c1` (centres unmarked) [Example 89, N-((1r,3r)-3-(3-chloro-4-cyanophenoxy)-2,2,4,4-tetramethylcyclobutyl)-4-(3-(1 ? (3-(2,6-dioxopiperidin-3-yl)-4-oxo-3,4-dihydrobenzo[d][1,2,3]triazin-6-yl)-[1,4 ? bipiperdin]-4-yl)prop-1-yn-1-yl)benzamide], the CC50 came out at 112 nM.
For `CC1(C)[C@H](NC(=O)c2ccc(N3CCN(Cc4cn(-c5ccc6nnn(C7CCC(=O)NC7=O)c(=O)c6c5)nn4)CC3)cc2)C(C)(C)[C@H]1Oc1ccc(C#N)c(Cl)c1` (some centres unmarked) [Example 91, N-((1r,3r)-3-(3-chloro-4-cyanophenoxy)-2,2,4,4-tetramethylcyclobutyl)-4-(4-((1-(3-(2,6-dioxopiperidin-3-yl)-4-oxo-3,4-dihydrobenzo[d][1,2,3]triazin-6-yl)-1H-1,2,3-triazol-4-yl)methyl)piperazin-1-yl)benzamide], the CC50 amounted to 262 nM.
The value for `CC1(C)[C@H](NC(=O)c2ccc(CCN3CC4CN(c5ccc6nnn(C7CCC(=O)NC7=O)c(=O)c6c5)CC4C3)cc2)C(C)(C)[C@H]1Oc1ccc(C#N)c(Cl)c1` (some centres unmarked) [Example 92, N-((1r,3r)-3-(3-chloro-4-cyanophenoxy)-2,2,4,4-tetramethylcyclobutyl)-4-(2-(5-(3-(2,6-dioxopiperidin-3-yl)-4-oxo-3,4-dihydrobenzo[d][1,2,3]triazin-6-yl)hexahydropyrrolo[3,4-c]pyrrol-2(1H)-yl)ethyl)benzamide] was more than 10000 nM.
On to `CC1(C)C(NC(=O)c2ccc(C#CC3CCN(C(=O)C4CN(c5ccc6nnn(C7CCC(=O)NC7=O)c(=O)c6c5)C4)CC3)cc2)C(C)(C)C1Oc1ccc(C#N)c(Cl)c1` (centres unmarked) [Example 95, N-((1r,3r)-3-(3-chloro-4-cyanophenoxy)-2,2,4,4-tetramethylcyclobutyl)-4-((1-(1-(3-(2,6-dioxopiperidin-3-yl)-4-oxo-3,4-dihydrobenzo[d][1,2,3]triazin-6-yl)azetidine-3-carbonyl)piperidin-4-yl)ethynyl)benzamide], for which the CC50 was 4.5 nM.
For `CC1(C)C(NC(=O)c2ccc(C#CC3CCN(CC4CCN(C(=O)C5CN(c6ccc7nnn(C8CCC(=O)NC8=O)c(=O)c7c6)C5)CC4)CC3)cc2)C(C)(C)C1Oc1ccc(C#N)c(Cl)c1` (centres unmarked) [Example 96, N-((1r,3r)-3-(3-chloro-4-cyanophenoxy)-2,2,4,4-tetramethylcyclobutyl)-4-((1-((1-(1-(3-(2,6-dioxopiperidin-3-yl)-4-oxo-3,4-dihydrobenzo[d][1,2,3]triazin-6-yl)azetidine-3-carbonyl)piperidin-4-yl)methyl)piperidin-4-yl)ethynyl)benzamide], the CC50 stood at 8.03 nM.
The value for `CC1(C)C(NC(=O)c2ccc(C#CC3CCN(CC4CCN(C(=O)CNc5ccc6nnn(C7CCC(=O)NC7=O)c(=O)c6c5)CC4)CC3)cc2)C(C)(C)C1Oc1ccc(C#N)c(Cl)c1` (centres unmarked) [Example 98, N-((1r,3r)-3-(3-chloro-4-cyanophenoxy)-2,2,4,4-tetramethylcyclobutyl)-4-((1-((1-((3-(2,6-dioxopiperidin-3-yl)-4-oxo-3,4-dihydrobenzo[d][1,2,3]triazin-6-yl)glycyl)piperidin-4-yl)methyl)piperidin-4-yl)ethynyl)benzamide] was 6.72 nM; that for `CC1(C)[C@H](NC(=O)c2cnc(N3CCN(CC4CCN(c5ccc6nnn(C7CCC(=O)NC7=O)c(=O)c6c5)CC4)CC3)nc2)C(C)(C)[C@H]1Oc1ccc(C#N)c(Cl)c1` (some centres unmarked) [Example 100, N-((1r,3r)-3-(3-chloro-4-cyanophenoxy)-2,2,4,4-tetramethylcyclobutyl)-2-(4-((1-(3-(2,6-dioxopiperidin-3-yl)-4-oxo-3,4-dihydrobenzo[d][1,2,3]triazin-6-yl)piperidin-4-yl)methyl)piperazin-1-yl)pyrimidine-5-carboxamide] was 2 nM; that for `CC1(C)C(NC(=O)c2ccc(-n3cc(CC4CCN(C(=O)C5CCN(c6ccc7nnn(C8CCC(=O)NC8=O)c(=O)c7c6)CC5)CC4)nn3)cc2)C(C)(C)C1Oc1ccc(C#N)c(Cl)c1` (centres unmarked) [Example 104, N-((1r,3r)-3-(3-chloro-4-cyanophenoxy)-2,2,4,4-tetramethylcyclobutyl)-4-(4-((1-(1-(3-(2,6-dioxopiperidin-3-yl)-4-oxo-3,4-dihydrobenzo[d][1,2,3]triazin-6-yl)piperidine-4-carbonyl)piperidin-4-yl)methyl)-1H-1,2,3-triazol-1-yl)benzamide] was 16.9 nM.
The value for `CC1(C)C(NC(=O)c2ccc(N3CCN(Cc4cn(C5CCN(c6ccc7nnn(C8CCC(=O)NC8=O)c(=O)c7c6)CC5)nn4)CC3)cc2)C(C)(C)C1Oc1ccc(C#N)c(Cl)c1` (centres unmarked) [Example 105, N-((1r,3r)-3-(3-chloro-4-cyanophenoxy)-2,2,4,4-tetramethylcyclobutyl)-4-(4-((1-(1-(3-(2,6-dioxopiperidin-3-yl)-4-oxo-3,4-dihydrobenzo[d][1,2,3]triazin-6-yl)piperidin-4-yl)-1H-1,2,3-triazol-4-yl)methyl)piperazin-1-yl)benzamide] was 80.2 nM; that for `CC1(C)C(NC(=O)c2ccc(CCN3CCN(CC4CCN(C(=O)C5CCN(c6ccc7nnn(C8CCC(=O)NC8=O)c(=O)c7c6)CC5)CC4)CC3)cc2)C(C)(C)C1Oc1ccc(C#N)c(Cl)c1` (centres unmarked) [Example 108, N-((1r,3r)-3-(3-chloro-4-cyanophenoxy)-2,2,4,4-tetramethylcyclobutyl)-4-(2-(4-((1-(1-(3-(2,6-dioxopiperidin-3-yl)-4-oxo-3,4-dihydrobenzo[d][1,2,3]triazin-6-yl)piperidine-4-carbonyl)piperidin-4-yl)methyl)piperazin-1-yl)ethyl)benzamide] was 18.8 nM.
Consider `CC1(C)C(NC(=O)c2ccc(CCN3CCN(CC4CCN(C(=O)C5CN(c6ccc7nnn(C8CCC(=O)NC8=O)c(=O)c7c6)C5)CC4)CC3)cc2)C(C)(C)C1Oc1ccc(C#N)c(Cl)c1` (centres unmarked) [Example 109, N-((1r,3r)-3-(3-chloro-4-cyanophenoxy)-2,2,4,4-tetramethylcyclobutyl)-4-(2-(4-((1-(1-(3-(2,6-dioxopiperidin-3-yl)-4-oxo-3,4-dihydrobenzo[d][1,2,3]triazin-6-yl)azetidine-3-carbonyl)piperidin-4-yl)methyl)piperazin-1-yl)ethyl)benzamide], for which the half-maximal cytotoxic concentration (CC50) is 13 nM.
On to `CC1(C)C(NC(=O)c2ccc(-c3cnn(C4CCN(CC5CCN(C(=O)CNc6ccc7nnn(C8CCC(=O)NC8=O)c(=O)c7c6)CC5)CC4)c3)cc2)C(C)(C)C1Oc1ccc(C#N)c(Cl)c1` (centres unmarked) [Example 112, N-((1r,3r)-3-(3-chloro-4-cyanophenoxy)-2,2,4,4-tetramethylcyclobutyl)-4-(1-(1-((1-((3-(2,6-dioxopiperidin-3-yl)-4-oxo-3,4-dihydrobenzo[d][1,2,3]triazin-6-yl)glycyl)piperidin-4-yl)methyl)piperidin-4-yl)-1H-pyrazol-4-yl)benzamide], for which the CC50 was 16 nM.
Turning to `CC1(C)C(NC(=O)c2ccc(-c3cnn(C4CCN(CC5CCN(C(=O)COc6ccc7nnn(C8CCC(=O)NC8=O)c(=O)c7c6)CC5)CC4)c3)cc2)C(C)(C)C1Oc1ccc(C#N)c(Cl)c1` (centres unmarked) [Example 113, N-((1r,3r)-3-(3-chloro-4-cyanophenoxy)-2,2,4,4-tetramethylcyclobutyl)-4-(1-(1-((1-(2-((3-(2,6-dioxopiperidin-3-yl)-4-oxo-3,4-dihydrobenzo[d][1,2,3]triazin-6-yl)oxy)acetyl)piperidin-4-yl)methyl)piperidin-4-yl)-1H-pyrazol-4-yl)benzamide], the CC50 turned out to be 30 nM.
Take `CC1(C)C(NC(=O)c2ccc(-c3cnn(C4CCN(CC5CCN(C(=O)C6CN(c7ccc8nnn(C9CCC(=O)NC9=O)c(=O)c8c7)C6)CC5)CC4)c3)nc2)C(C)(C)C1Oc1ccc(C#N)c(Cl)c1` (centres unmarked) [Example 114, N-((1r,3r)-3-(3-chloro-4-cyanophenoxy)-2,2,4,4-tetramethylcyclobutyl)-6-(1-(1-((1-(1-(3-(2,6-dioxopiperidin-3-yl)-4-oxo-3,4-dihydrobenzo[d][1,2,3]triazin-6-yl)azetidine-3-carbonyl)piperidin-4-yl)methyl)piperidin-4-yl)-1H-pyrazol-4-yl)nicotinamide]: the half-maximal cytotoxic concentration (CC50) worked out at 14 nM.
In the case of `CC1(C)C(NC(=O)c2ccc(C#CCC3CCN(CC4CCN(C(=O)C5CCN(c6ccc7nnn(C8CCC(=O)NC8=O)c(=O)c7c6)CC5)CC4)CC3)cc2)C(C)(C)C1Oc1ccc(C#N)c(Cl)c1` (centres unmarked) [Example 116, N-((1r,3r)-3-(3-chloro-4-cyanophenoxy)-2,2,4,4-tetramethylcyclobutyl)-4-(3-(1-((1-(1-(3-(2,6-dioxopiperidin-3-yl)-4-oxo-3,4-dihydrobenzo[d][1,2,3]triazin-6-yl)piperidine-4-carbonyl)piperidin-4-yl)methyl)piperidin-4-yl)prop-1-yn-1-yl)benzamide], the 50% cytotoxic concentration (CC50) amounted to 16.1 nM.
The value for `CC1(C)C(NC(=O)c2ccc(C#CCC3CCN(CC4CCN(C(=O)CNc5ccc6nnn(C7CCC(=O)NC7=O)c(=O)c6c5)CC4)CC3)cc2)C(C)(C)C1Oc1ccc(C#N)c(Cl)c1` (centres unmarked) [Example 118, N-((1r,3r)-3-(3-chloro-4-cyanophenoxy)-2,2,4,4-tetramethylcyclobutyl)-4-(3-(1-((1-((3-(2,6-dioxopiperidin-3-yl)-4-oxo-3,4-dihydrobenzo[d][1,2,3]triazin-6-yl)glycyl)piperidin-4-yl)methyl)piperidin-4-yl)prop-1-yn-1-yl)benzamide] was 17 nM; that for `CC1(C)C(NC(=O)c2ccc(C#CCC3CCN(CC4CCN(C(=O)COc5ccc6nnn(C7CCC(=O)NC7=O)c(=O)c6c5)CC4)CC3)cc2)C(C)(C)C1Oc1ccc(C#N)c(Cl)c1` (centres unmarked) [Example 119, N-((1r,3r)-3-(3-chloro-4-cyanophenoxy)-2,2,4,4-tetramethylcyclobutyl)-4-(3-(1-((1-(2-((3-(2,6-dioxopiperidin-3-yl)-4-oxo-3,4-dihydrobenzo[d][1,2,3]triazin-6-yl)oxy)acetyl)piperidin-4-yl)methyl)piperidin-4-yl)prop-1-yn-1-yl)benzamide] was 36 nM.

The CC50 is the concentration giving 50% cytotoxicity.
